This passage reports IC50 results from paper PMC8658998, “Identification of Novel Antistaphylococcal Hit Compounds Targeting Sortase A” (Molecules, 2021).

In the assay the target is T1, sortase A (Staphylococcus aureus, UniProt Q2FV99).
T1 construct: gene srtA
Kind of assay: SensoLyte […] Sortase A FRET substrate cleavage assay (5-FAM/QXL). The class given is biochemical.

Like-named read-outs stand apart in the source and are kept apart here.

T1 sequence (Q2FV99 whole entry): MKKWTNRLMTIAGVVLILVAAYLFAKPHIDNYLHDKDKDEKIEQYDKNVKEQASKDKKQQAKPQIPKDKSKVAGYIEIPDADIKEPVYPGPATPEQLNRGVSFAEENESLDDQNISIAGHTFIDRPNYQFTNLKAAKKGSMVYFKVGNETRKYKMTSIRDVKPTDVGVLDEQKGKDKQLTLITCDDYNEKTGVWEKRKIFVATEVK

In general, IC50 refers to the concentration needed to halve the response being measured. For the molecule `CCN(CC)CCCNc1cc([N+](=O)[O-])ccc1-c1ncc2ccccc2n1` [compound 1, N,N-diethyl-N′-(5-nitro-2-(quinazolin-2-yl)phenyl)propane-1,3-diamine], where the note is “read-out: IC50”, the IC50 came out at 160 µM.

The molecule `c1ccc2c(Nc3ccc4[nH]cnc4c3)c3ccccc3nc2c1` [compound 2, acridin-9-yl-(1H-benzoimidazol-5-yl)-amine] had an IC50 of 207 µM.
